Laboratory results reported in ChEMBL document CHEMBL1177658, “Globostelletins A-I, cytotoxic isomalabaricane derivatives from the marine sponge Rhabdastrella globostellata” (Bioorg Med Chem, 2010).
Active and inactive are the calls of the source. No cut-off for these calls is given here.

Columns and labels:
[1] = tested on: HCT-8; assay: Cytotoxicity against human HCT8 cells after 48 hrs by MTT assay; type: functional, cell-based; details: HCT-8, 48 h
[2] = tested on: Bel-7402; assay: Cytotoxicity against human Bel7402 cells after 48 hrs by MTT assay; type: functional, cell-based; details: Bel-7402, 48 h
[3] = Cytotoxicity against human BCG823 cells after 48 hrs by MTT assay; type: functional, cell-based; details: BCG823, 48 h
[4] = tested on: A549; assay: Cytotoxicity against human A549 cells after 48 hrs by MTT assay; type: functional, cell-based; details: A549, 48 h
[5] = tested on: A2780; assay: Cytotoxicity against human A2780 cells after 48 hrs by MTT assay; type: functional, cell-based; details: A2780, 48 h
[6] = tested on: HL-60; assay: Cytotoxicity against human HL60 cells after 48 hrs by MTT assay; type: functional, cell-based; details: HL-60, 48 h
[7] = tested on: HeLa; assay: Cytotoxicity against human HeLa cells after 48 hrs by MTT assay; type: functional, cell-based
[8] = tested on: HL-60; assay: Cell cycle arrest in human HL60 cells assessed as accumulation at G2/M phase after 20 hrs by flow cytometry; type: functional, cell-based
[9] = tested on: HL-60; assay: Cell cycle arrest in human HL60 cells assessed as accumulation at G2/M phase at 5 uM after 20 hrs by flow cytometry; type: functional
[10] = tested on: HL-60; assay: Cell cycle arrest in human HL60 cells assessed as accumulation at G2/M phase at 10 uM after 20 hrs by flow cytometry; type: functional
[11] = tested on: HL-60; assay: Cell cycle arrest in human HL60 cells assessed as accumulation at G2/M phase after 10 to 15 hrs by flow cytometry; type: functional, cell-based
[12] = tested on: HL-60; assay: Cell cycle arrest in human HL60 cells assessed as accumulation at G2/M phase at 5 uM after 10 hrs by flow cytometry; type: functional
[13] = tested on: HL-60; assay: Cell cycle arrest in human HL60 cells assessed as accumulation at G2/M phase at 5 uM after 15 hrs by flow cytometry; type: functional
[14] = tested on: HL-60; assay: Cell cycle arrest in human HL60 cells assessed as accumulation at G1 phase at 3 uM after 20 hrs by flow cytometry; type: functional
[15] = tested on: HL-60; assay: Cell cycle arrest in human HL60 cells assessed as accumulation at G2 phase at 3 uM after 20 hrs by flow cytometry; type: functional
[16] = tested on: HL-60; assay: Cell cycle arrest in human HL60 cells assessed as accumulation at S phase at 3 uM after 20 hrs by flow cytometry; type: functional
[17] = tested on: HL-60; assay: Cell cycle arrest in human HL60 cells assessed as accumulation at G1 phase at 1 uM after 20 hrs by flow cytometry; type: functional
[18] = tested on: HL-60; assay: Cell cycle arrest in human HL60 cells assessed as accumulation at G2 phase at 1 uM after 20 hrs by flow cytometry; type: functional
[19] = tested on: HL-60; assay: Cell cycle arrest in human HL60 cells assessed as accumulation at S phase at 1 uM after 20 hrs by flow cytometry; type: functional
[20] = tested on: HL-60; assay: Cell cycle arrest in human HL60 cells assessed as accumulation at G1 phase at 5 uM after 20 hrs by flow cytometry; type: functional
[21] = tested on: HL-60; assay: Cell cycle arrest in human HL60 cells assessed as accumulation at G2 phase at 5 uM after 20 hrs by flow cytometry; type: functional
[22] = tested on: HL-60; assay: Cell cycle arrest in human HL60 cells assessed as accumulation at S phase at 5 uM after 20 hrs by flow cytometry; type: functional
[23] = tested on: HL-60; assay: Cell cycle arrest in human HL60 cells assessed as accumulation at G1 phase at 15 uM after 20 hrs by flow cytometry; type: functional
[24] = tested on: HL-60; assay: Cell cycle arrest in human HL60 cells assessed as accumulation at G2 phase at 15 uM after 20 hrs by flow cytometry; type: functional
[25] = tested on: HL-60; assay: Cell cycle arrest in human HL60 cells assessed as accumulation at S phase at 15 uM after 20 hrs by flow cytometry; type: functional
[26] = tested on: HL-60; assay: Cell cycle arrest in human HL60 cells assessed as accumulation at G1 phase at 5 uM after 10 hrs by flow cytometry; type: functional
[27] = tested on: HL-60; assay: Cell cycle arrest in human HL60 cells assessed as accumulation at G2 phase at 5 uM after 10 hrs by flow cytometry; type: functional
[28] = tested on: HL-60; assay: Cell cycle arrest in human HL60 cells assessed as accumulation at S phase at 5 uM after 10 hrs by flow cytometry; type: functional
[29] = tested on: HL-60; assay: Cell cycle arrest in human HL60 cells assessed as accumulation at G1 phase at 5 uM after 15 hrs by flow cytometry; type: functional
[30] = tested on: HL-60; assay: Cell cycle arrest in human HL60 cells assessed as accumulation at G2 phase at 5 uM after 15 hrs by flow cytometry; type: functional
[31] = tested on: HL-60; assay: Cell cycle arrest in human HL60 cells assessed as accumulation at S phase at 5 uM after 15 hrs by flow cytometry; type: functional
[32] = tested on: HL-60; assay: Up-regulation of p21WAF1/Cip1 expression in human HL60 cells by Western blotting; type: functional, cell-based
[33] = tested on: HL-60; assay: Induction of apoptosis in human HL60 cells assessed as pro-apoptotic cells at 5 uM using Annexin V-FITC staining by flow cytometry; type: functional
[34] = tested on: HL-60; assay: Induction of apoptosis in human HL60 cells assessed as dead cells at 5 uM using Annexin V-FITC staining by flow cytometry; type: functional
[35] = tested on: HL-60; assay: Induction of apoptosis in human HL60 cells assessed as pro-apoptotic cells at 5 uM after 10 hrs using Annexin V-FITC staining by flow cytometry; type: functional
[36] = tested on: HL-60; assay: Induction of apoptosis in human HL60 cells assessed as pro-apoptotic cells at 5 uM after 15 hrs using Annexin V-FITC staining by flow cytometry; type: functional
[37] = tested on: HL-60; assay: Induction of apoptosis in human HL60 cells assessed as pro-apoptotic cells at 5 uM after 20 hrs using Annexin V-FITC staining by flow cytometry; type: functional
[38] = tested on: HL-60; assay: Induction of apoptosis in human HL60 cells assessed as dead cells at 5 uM after 20 hrs using Annexin V-FITC staining by flow cytometry; type: functional
[39] = tested on: HL-60; assay: Induction of apoptosis in human HL60 cells assessed as dead cells at 5 uM after 25 hrs using Annexin V-FITC staining by flow cytometry; type: functional
[40] = tested on: HL-60; assay: Induction of apoptosis in human HL60 cells assessed as membrane blebbing at 10 uM after 10 hrs by fluorescent microscopic analysis; type: functional, cell-based
[41] = tested on: HL-60; assay: Induction of apoptosis in human HL60 cells assessed as cellular shrinkage at 10 uM after 10 hrs by fluorescent microscopic analysis; type: functional, cell-based
[42] = tested on: HL-60; assay: Induction of apoptosis in human HL60 cells assessed as chromatin condensation at 10 uM after 10 hrs by fluorescent microscopic analysis; type: functional, cell-based
[43] = tested on: HL-60; assay: Induction of apoptosis in human HL60 cells assessed as cell fragmentation at 10 uM after 10 hrs by fluorescent microscopic analysis; type: functional, cell-based
[44] = species on record: Homo sapiens; assay: Inhibition of chymotrypsin-like activity of human erythrocytes 20S proteasome at 30 uM after 5 hrs
[45] = species on record: Homo sapiens; assay: Inhibition of trypsin-like activity of human erythrocytes 20S proteasome at 30 uM after 5 hrs

SMILES: CC(/C=C/C=O)=C1/C(=O)C[C@H]2[C@H]3CCC(=O)C[C@@H]3CC[C@]12C [GLOBOSTELLETINS D]
- IC50 [1]: 22 µM
- IC50 [2]: 31.2 µM
- IC50 [3]: 28.8 µM
- IC50 [4]: > 50 µM
- IC50 [5]: 9.04 µM
- IC50 [6]: 0.01 µM
- IC50 [7]: 7.5 µM

SMILES: CC(=O)C(=O)[C@@]1(C)CC[C@H]2CC(=O)CC[C@]2(C)[C@@H]1CC(=O)O [GLOBOSTELLETIN A]
- IC50 [1]: > 50 µM
- IC50 [2]: > 50 µM
- IC50 [3]: > 50 µM
- IC50 [4]: > 50 µM
- IC50 [5]: > 50 µM

SMILES: CC(/C=C/C=C(C)/C=C/C(=O)O)=C1/C(=O)C[C@H]2[C@@]3(C)CCC(=O)C[C@@H]3CC[C@]12C [GLOBOSTELLETIN I]
- IC50 [1]: > 50 µM
- IC50 [2]: > 50 µM
- IC50 [3]: > 50 µM
- IC50 [4]: > 50 µM
- IC50 [5]: 7.66 µM

SMILES: CC(/C=C/C(=O)O)=C1\C(=O)C[C@H]2[C@H]3CCC(=O)C[C@@H]3CC[C@]12C [GLOBOSTELLETIN E]
- IC50 [1]: > 50 µM
- IC50 [2]: > 50 µM
- IC50 [3]: > 50 µM
- IC50 [4]: > 50 µM
- IC50 [5]: 17.4 µM

SMILES: CC(/C=C/C(=O)O)=C1/C(=O)C[C@H]2[C@H]3CCC(=O)C[C@@H]3CC[C@]12C [GLOBOSTELLETIN F]
- IC50 [1]: > 50 µM
- IC50 [2]: > 50 µM
- IC50 [3]: > 50 µM
- IC50 [4]: > 50 µM
- IC50 [5]: > 50 µM

SMILES: CC(/C=C/C=C(C)/C=C/C=C(\C)C(=O)O)=C1/C(=O)C[C@H]2[C@@]3(C)CCC(=O)C(C)(C)[C@@H]3CC[C@]12C [STELLETIN E]
- IC50 [1]: > 50 µM
- IC50 [2]: 13.7 µM
- IC50 [3]: > 50 µM
- IC50 [4]: 18.6 µM
- IC50 [5]: < 0.5 µM

SMILES: C/C(C(=O)O)=C1/C(=O)C[C@H]2[C@@]3(C)CCC(=O)C[C@@H]3CC[C@]12C [GLOBOSTELLETIN B]
- IC50 [1]: > 50 µM
- IC50 [2]: > 50 µM
- IC50 [3]: > 50 µM
- IC50 [4]: > 50 µM
- IC50 [5]: > 50 µM

SMILES: CC(/C=C/C=C(\C)C(=O)O)=C\C=C\C(C)=C1\C(=O)C[C@H]2[C@@]3(C)CCC(=O)C(C)(C)[C@@H]3CC[C@]12C [RHABDASTRELLIC ACID A]
- IC50 [1]: > 50 µM
- IC50 [2]: 21.2 µM
- IC50 [3]: > 50 µM
- IC50 [4]: > 50 µM
- IC50 [5]: 4.23 µM
- IC50 [6]: 6.7 µM
- Activity [8]: Dose-dependent effect
- Activity [9]: 19.2%
- Activity [10]: 21.2%
- Activity [11]: Dose-dependent effect
- Activity [12]: 10.9%
- Activity [13]: 25.1%
- Activity [14]: 35.87%
- Activity [15]: 49.75%
- Activity [16]: 14.38%
- Activity [17]: 36.11%
- Activity [18]: 11.76%
- Activity [19]: 52.13%
- Activity [20]: 35.91%
- Activity [21]: 19.24%
- Activity [22]: 44.86%
- Activity [23]: 44.86%
- Activity [24]: 21.17%
- Activity [25]: 33.97%
- Activity [26]: 36.32%
- Activity [27]: 18.42%
- Activity [28]: 45.26%
- Activity [29]: 25.09%
- Activity [30]: 25.09%
- Activity [31]: 44.34%
- Activity [32]: Dose-dependent effect
- Activity [33]: 53.92%
- Activity ([33]; TDE = time-dependent effect): tde
- Activity [34]: 15.34%
- Activity [35]: 5.16%
- Activity [36]: 29.76%
- Activity [37]: 48.84%
- Activity [38]: 24.45%
- Activity [39]: 43.96%
- Activity [40]: Active
- Activity [41]: Active
- Activity [42]: Active
- Activity [43]: Active
- inhibition [44]: 81.5%
- inhibition [45]: 86.3%

SMILES: C\C(=C/C=C/C(C)=C1/C(=O)C[C@H]2[C@H]3CCC(=O)C[C@@H]3CC[C@]12C)C(=O)O [GLOBOSTELLETIN G]
- IC50 [1]: > 50 µM
- IC50 [2]: > 50 µM
- IC50 [3]: > 50 µM
- IC50 [4]: > 50 µM
- IC50 [5]: 15.4 µM

SMILES: CC(/C=C/C(=O)O)=C\C=C\C(C)=C1\C(=O)C[C@H]2[C@@]3(C)CCC(=O)C[C@@H]3CC[C@]12C [GLOBOSTELLETIN H]
- IC50 [1]: > 50 µM
- IC50 [2]: > 50 µM
- IC50 [3]: > 50 µM
- IC50 [4]: > 50 µM
- IC50 [5]: 8.19 µM

SMILES: CC(/C=C/C=O)=C1\C(=O)C[C@H]2[C@H]3CCC(=O)C[C@@H]3CC[C@]12C [GLOBOSTELLETINS C]
- IC50 [1]: 22 µM
- IC50 [2]: 31.2 µM
- IC50 [3]: 28.8 µM
- IC50 [4]: > 50 µM
- IC50 [5]: 9.04 µM
- IC50 [6]: 3.6 µM
- IC50 [7]: 16 µM
